Measured values from paper PMC9669442, “Discovery of novel inhibitors targeting nematode chitinase CeCht1: Virtual screening, biological evaluation, and molecular dynamics simulation” (Frontiers in Chemistry, 2022).

target: T1, CeCht1 (CeCht1-CAD) (Caenorhabditis elegans, UniProt Q11174); experiment: end-point fluorescence assay, 4-methylumbelliferone release; type: biochemical; settings: not given
T1 construct: gene cht-1; secreted/overexpressed in Pichia pastoris GS115, purified as in Chen Q. et al. 2021; catalytic residues Asp175, Asp177, Glu179
From the text: end-point fluorescence assay, 4-methylumbelliferone release on CeCht1 (CeCht1-CAD)

T1 sequence (Q11174 52-431): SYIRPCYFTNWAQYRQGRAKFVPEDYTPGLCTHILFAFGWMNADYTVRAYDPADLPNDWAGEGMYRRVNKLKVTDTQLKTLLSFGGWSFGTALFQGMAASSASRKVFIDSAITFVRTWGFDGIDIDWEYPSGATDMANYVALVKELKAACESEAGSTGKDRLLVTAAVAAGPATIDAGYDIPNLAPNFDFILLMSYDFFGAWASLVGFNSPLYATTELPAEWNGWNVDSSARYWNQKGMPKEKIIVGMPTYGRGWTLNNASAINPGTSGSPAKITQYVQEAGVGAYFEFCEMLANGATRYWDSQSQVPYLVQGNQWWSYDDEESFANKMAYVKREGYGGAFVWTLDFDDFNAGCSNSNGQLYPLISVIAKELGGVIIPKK

Structure (SMILES)	IC50 [µM]
CCn1c(=N)c(C(=O)NCCc2ccc(OC)cc2)cc2c(=O)n3cccc(C)c3nc21 [HAU-4, 1-ethyl-3-((4-methoxyphenethyl)carbamoyl)-10-methyl-5-oxo-1,5-dihydro-2H-dipyrido [1,2-a:2′,3′-d] pyrimidin-2-iminium]	4.2 ± 0.5
COc1ccc2cc(C(C)NC(=O)Cn3nnnc3CN3CCCC3)ccc2c1 (stereo not shown) [HAU-7]	10 ± 2.6

same assay, conditions: 4 μM 4-MU-(GlcNAc)2, 10 nM enzyme, 20 mM sodium phosphate pH 6.0, 1% DMSO, 25 °C, 20 min

Structure (SMILES)	Inhibition rate at 10 μM (%)
Cc1ccc(OCc2cc(=O)n3c4c(sc3n2)CCCC4)c(NC(=O)CC(C)C)c1 [HAU-1]	30.4 ± 2.5
Cc1ccc2nc(SCc3noc(CCC(=O)Nc4ccc(C)c(C)c4)n3)[nH]c2c1 [HAU-3]	0.4 ± 0.2
COc1ccc(OC)c(-c2nc(C(=O)NCC3CCCO3)cc3c2[nH]c2ccccc23)c1 (stereo not shown) [HAU-9]	39.4 ± 3.3
CCOc1cccc(CNC2CC(C)(C)Cc3c2cnn3-c2ccc(C)cc2)c1O (stereo not shown) [HAU-11]	34.9 ± 1.6
CCOc1ccc2ccccc2c1/C=N/NC(=O)CNC(=O)c1ccc2c(c1)OCCO2 [HAU-15]	2.0 ± 0.8
